Data from the NIST ThermoML archive (doi:10.1021/je100888h).

What was measured:
[1] = 101 kPa, Liquid
[2] = xn = mol fraction of the nth substance listed; details: 101 kPa, Liquid

Cc1ccc(O)cc1 [4-methylphenol]
Details	mass density [kg/m3]
[1], 303.15 K	1025.9

Cc1ccccc1O [2-methylphenol] + O
[2], 303.15 K
Details	mass density [kg/m3]
x1 = 0.5953	1033.22
x1 = 0.675	1034.33
x1 = 0.8012	1035.55
x1 = 0.8184	1035.9
x1 = 0.8443	1036.16
x1 = 0.8903	1036.47
x1 = 0.8909	1036.26
x1 = 0.9409	1036.95

Oc1ccccc1 [phenol] + O
[2], 313.15 K
Details	mass density [kg/m3]
x1 = 0.3794	1038.84
x1 = 0.4653	1042.74
x1 = 0.6176	1048.12
x1 = 0.7052	1050.69
x1 = 0.8247	1054.06
x1 = 0.9099	1056.28

Cc1ccccc1O [2-methylphenol] + Cc1ccccc1
[2], 303.15 K
Details	mass density [kg/m3]
x2 = 0.0529	1027.55
x2 = 0.0849	1021.91
x2 = 0.1409	1011.86
x2 = 0.203	1000.75
x2 = 0.2749	987.89
x2 = 0.341	975.95
x2 = 0.4343	959.13
x2 = 0.5187	943.88
x2 = 0.6073	927.88
x2 = 0.6873	913.43
x2 = 0.7547	901.26
x2 = 0.7852	895.73
x2 = 0.8381	886.24
x2 = 0.8481	884.43
x2 = 0.9068	873.9
x2 = 0.9346	869.01
x2 = 0.9737	862.08

Cc1cccc(O)c1 [3-methylphenol] + Cc1ccccc1
[2], 303.15 K
Details	mass density [kg/m3]
x2 = 0.0563	1016.89
x2 = 0.0853	1012.17
x2 = 0.1619	999.57
x2 = 0.2521	984.6
x2 = 0.3053	975.73
x2 = 0.3799	963.22
x2 = 0.4494	951.45
x2 = 0.5205	939.49
x2 = 0.7198	905.42
x2 = 0.8129	889.49
x2 = 0.8723	879.32
x2 = 0.9534	865.4

Cc1ccccc1O [2-methylphenol]
Details	mass density [kg/m3]
[1], 303.15 K	1036.94

Cc1cccc(O)c1 [3-methylphenol]
Details	mass density [kg/m3]
[1], 303.15 K	1025.95

Cc1ccc(O)cc1 [4-methylphenol] + Cc1ccccc1
[2], 303.15 K
Details	mass density [kg/m3]
x2 = 0.0588	1016.31
x2 = 0.1156	1007.12
x2 = 0.1715	997.89
x2 = 0.2813	979.91
x2 = 0.3882	962.16
x2 = 0.4914	944.32
x2 = 0.5885	929.7
x2 = 0.6906	912.26
x2 = 0.775	897.37
x2 = 0.8337	887.52
x2 = 0.886	877.87
x2 = 0.962	864.24

Cc1cccc(O)c1 [3-methylphenol] + O
[2], 303.15 K
Details	mass density [kg/m3]
x1 = 0.547	1020.94
x1 = 0.5754	1021.37
x1 = 0.6312	1022.09
x1 = 0.6558	1022.4
x1 = 0.704	1022.95
x1 = 0.7933	1023.97
x1 = 0.7997	1024.04
x1 = 0.8215	1024.36
x1 = 0.845	1024.52
x1 = 0.8635	1024.3
x1 = 0.8759	1024.67
x1 = 0.8839	1024.94
x1 = 0.9231	1025.3
x1 = 0.9426	1025.49
x1 = 0.9703	1025.78

Cc1ccc(O)cc1 [4-methylphenol] + O
[2], 303.15 K
Details	mass density [kg/m3]
x1 = 0.548	1020.42
x1 = 0.6243	1021.77
x1 = 0.6758	1022.35
x1 = 0.74	1023.33
x1 = 0.7976	1023.92
x1 = 0.8897	1025.1

Oc1ccccc1 [phenol] + Cc1ccccc1
[2], 313.15 K
Details	mass density [kg/m3]
x2 = 0.0999	1033.8
x2 = 0.1576	1021.66
x2 = 0.2581	998.46
x2 = 0.3492	978.14
x2 = 0.4363	959.22
x2 = 0.5438	936.46
x2 = 0.6351	917.72
x2 = 0.7288	898.99
x2 = 0.8334	878.75
x2 = 0.9015	865.97

CCCCCCCC [octane]
Details	mass density [kg/m3]
[1], 303.15 K	694.52

Oc1ccccc1 [phenol]
Details	mass density [kg/m3]
[1], 313.15 K	1058.3

Cc1ccccc1 [toluene]
[1]
Details	mass density [kg/m3]
303.15 K	857.47
313.15 K	848.07

Cc1ccccc1O [2-methylphenol] + CCCCCCCC
[2], 303.15 K
Details	mass density [kg/m3]
x2 = 0.0779	998.31
x2 = 0.1634	958.43
x2 = 0.2569	918.23
x2 = 0.299	901.26
x2 = 0.36	877.71
x2 = 0.4277	853.18
x2 = 0.4797	835.08
x2 = 0.5787	803.61
x2 = 0.6607	779.19
x2 = 0.7664	750.13
x2 = 0.8032	740.51
x2 = 0.9143	713.35

Cc1cccc(O)c1 [3-methylphenol] + CCCCCCCC
[2], 303.15 K
Details	mass density [kg/m3]
x2 = 0.1197	970.59
x2 = 0.2473	916.86
x2 = 0.3868	864.19
x2 = 0.5012	825.55
x2 = 0.6387	783.91
x2 = 0.7818	745.29
x2 = 0.8773	721.91
